In the NIST ThermoML archive (doi:10.1021/je0501639):
Several values for one entry are separate records, joined by “and”; a condition that tells them apart may be missing. Identical values can stand only once.

Tests used:
[1] = refractive index (Na D-line) (dimensionless); xn = mol fraction of the nth substance listed; details: 100.8 kPa, Liquid, Standard Abbe refractometry
[2] = xn = mol fraction of the nth substance listed; details: 100.8 kPa, Liquid
[3] = 100.8 kPa, Liquid
[4] = refractive index (Na D-line) (dimensionless); details: 101.33 kPa, Liquid, Standard Abbe refractometry

CCO [ethanol] + CC(C)(C)O
x1 = 1
Details	mass density, 298.15 K [kg/m3]	mass density, 308.15 K [kg/m3]	mass density, 318.15 K [kg/m3]	refractive index, 298.15 K	refractive index, 308.15 K	refractive index, 318.15 K
[1]	–	–	–	1.35932	1.35509	1.351
[2]	785.1	776.43	767.61	–	–	–

[2], Falling or rolling sphere viscometry, x1 = 1
Details	viscosity [mPa·s]
298.15 K	1.085
308.15 K	0.906
318.15 K	0.756

CC(C)CC(C)(C)C [2,2,4-trimethylpentane]
Details	mass density, 298.15 K [kg/m3]	mass density, 308.15 K [kg/m3]	mass density, 318.15 K [kg/m3]	refractive index, 298.15 K	refractive index, 308.15 K	refractive index, 318.15 K	viscosity, 298.15 K	viscosity, 308.15 K [mPa·s]	viscosity, 318.15 K [mPa·s]
[3]	687.89	679.55	671.1	–	–	–	0.474 mPa·s and 0.475 mPa·s	0.425	0.38
[4]	–	–	–	1.38898	1.38398	1.37898	–	–	–

CC(C)CC(C)(C)C [2,2,4-trimethylpentane] + CC(C)(C)O
x2 = 0
Details	mass density, 298.15 K [kg/m3]	mass density, 308.15 K [kg/m3]	mass density, 318.15 K [kg/m3]	refractive index, 298.15 K	refractive index, 308.15 K	refractive index, 318.15 K	viscosity, 298.15 K [mPa·s]	viscosity, 308.15 K [mPa·s]	viscosity, 318.15 K [mPa·s]
[1]	–	–	–	1.38898	1.38398	1.37898	–	–	–
[2]	687.89	679.55	671.1	–	–	–	0.475	0.425	0.38

CCO [ethanol]
Details	mass density, 298.15 K [kg/m3]	mass density, 308.15 K [kg/m3]	mass density, 318.15 K [kg/m3]	refractive index, 298.15 K	refractive index, 308.15 K	refractive index, 318.15 K
[3]	785.1	776.43	767.61	–	–	–
[4]	–	–	–	1.35932	1.35509	1.351 and 1.35095

[3], Falling or rolling sphere viscometry
Details	viscosity [mPa·s]
298.15 K	1.085
308.15 K	0.906
318.15 K	0.756

CCO [ethanol] + CC(C)CC(C)(C)C
x1 = 1
Details	mass density, 298.15 K [kg/m3]	mass density, 308.15 K [kg/m3]	mass density, 318.15 K [kg/m3]	refractive index, 298.15 K	refractive index, 308.15 K	refractive index, 318.15 K	viscosity, 298.15 K [mPa·s]	viscosity, 308.15 K [mPa·s]	viscosity, 318.15 K [mPa·s]
[1]	–	–	–	1.35932	1.35509	1.35095	–	–	–
[2]	785.1	776.43	767.61	–	–	–	1.085	0.906	0.756

CC(C)(C)O [2-methylpropan-2-ol]
Details	mass density, 298.15 K [kg/m3]	mass density, 308.15 K [kg/m3]	mass density, 318.15 K [kg/m3]	refractive index, 298.15 K	refractive index, 308.15 K	refractive index, 318.15 K
[3]	780.99	770.7	760.05	–	–	–
[4]	–	–	–	1.38481	1.3796	1.37416

[3], Falling or rolling sphere viscometry
Details	viscosity [mPa·s]
298.15 K	4.43
308.15 K	2.622
318.15 K	1.708
